Results on 54 compounds are retold here after US11884673B2, “Modulators of ion channel receptors and uses thereof” (BIONOMICS LIMITED, priority 2018, dated 2024).

T1 sequence (Q15858 whole entry): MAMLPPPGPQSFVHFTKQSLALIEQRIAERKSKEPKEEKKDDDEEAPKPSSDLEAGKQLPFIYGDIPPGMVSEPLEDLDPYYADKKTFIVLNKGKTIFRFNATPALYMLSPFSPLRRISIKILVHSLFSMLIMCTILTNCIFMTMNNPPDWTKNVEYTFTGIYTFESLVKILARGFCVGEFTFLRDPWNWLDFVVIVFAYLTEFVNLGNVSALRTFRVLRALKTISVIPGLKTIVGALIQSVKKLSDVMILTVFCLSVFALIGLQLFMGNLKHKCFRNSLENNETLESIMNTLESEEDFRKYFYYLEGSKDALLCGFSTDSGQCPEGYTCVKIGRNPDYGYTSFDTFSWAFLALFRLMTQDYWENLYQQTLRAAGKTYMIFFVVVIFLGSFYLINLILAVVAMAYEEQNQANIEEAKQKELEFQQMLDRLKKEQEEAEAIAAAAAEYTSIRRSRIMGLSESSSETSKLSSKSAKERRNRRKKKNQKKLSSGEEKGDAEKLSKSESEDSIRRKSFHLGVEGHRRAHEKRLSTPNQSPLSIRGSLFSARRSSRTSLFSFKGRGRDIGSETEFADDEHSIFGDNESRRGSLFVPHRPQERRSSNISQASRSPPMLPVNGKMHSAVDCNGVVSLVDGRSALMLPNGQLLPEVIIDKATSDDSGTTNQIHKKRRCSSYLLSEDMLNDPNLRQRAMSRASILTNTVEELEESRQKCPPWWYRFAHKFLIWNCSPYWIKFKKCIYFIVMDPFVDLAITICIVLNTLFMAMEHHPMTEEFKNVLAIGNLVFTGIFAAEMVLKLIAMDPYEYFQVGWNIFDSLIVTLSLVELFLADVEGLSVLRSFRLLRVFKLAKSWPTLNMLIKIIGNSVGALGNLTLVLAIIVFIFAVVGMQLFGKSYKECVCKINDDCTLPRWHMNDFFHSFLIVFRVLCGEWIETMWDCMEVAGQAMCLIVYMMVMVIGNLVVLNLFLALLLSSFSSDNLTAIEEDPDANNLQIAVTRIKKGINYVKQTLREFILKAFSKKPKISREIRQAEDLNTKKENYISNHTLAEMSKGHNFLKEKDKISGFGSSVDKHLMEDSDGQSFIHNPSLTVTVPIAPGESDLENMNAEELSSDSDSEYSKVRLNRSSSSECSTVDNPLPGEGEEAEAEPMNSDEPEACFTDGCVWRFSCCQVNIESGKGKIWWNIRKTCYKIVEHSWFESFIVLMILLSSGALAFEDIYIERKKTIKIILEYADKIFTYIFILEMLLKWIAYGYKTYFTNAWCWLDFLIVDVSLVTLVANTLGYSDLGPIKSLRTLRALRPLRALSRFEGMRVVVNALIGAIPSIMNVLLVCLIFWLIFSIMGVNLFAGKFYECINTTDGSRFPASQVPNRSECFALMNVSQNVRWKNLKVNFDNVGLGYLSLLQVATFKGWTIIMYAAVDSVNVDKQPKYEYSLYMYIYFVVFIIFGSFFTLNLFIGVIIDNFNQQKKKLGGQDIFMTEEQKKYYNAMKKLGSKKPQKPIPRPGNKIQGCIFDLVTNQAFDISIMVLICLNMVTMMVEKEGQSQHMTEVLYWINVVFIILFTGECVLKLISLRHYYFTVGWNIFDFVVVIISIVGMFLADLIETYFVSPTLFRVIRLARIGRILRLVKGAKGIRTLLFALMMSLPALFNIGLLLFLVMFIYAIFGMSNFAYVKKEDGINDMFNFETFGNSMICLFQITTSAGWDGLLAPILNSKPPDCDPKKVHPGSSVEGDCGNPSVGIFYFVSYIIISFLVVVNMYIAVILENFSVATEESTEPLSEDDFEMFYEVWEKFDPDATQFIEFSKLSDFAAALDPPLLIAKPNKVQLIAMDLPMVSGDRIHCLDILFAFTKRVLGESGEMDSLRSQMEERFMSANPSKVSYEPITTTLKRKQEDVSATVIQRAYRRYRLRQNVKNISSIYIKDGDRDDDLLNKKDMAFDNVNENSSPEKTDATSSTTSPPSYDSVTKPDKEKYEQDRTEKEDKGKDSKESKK

One assay addresses T1, hNav1.7 (Homo sapiens, UniProt Q15858).
T1 construct: expressed in transfected cells
Nature of the assay: hNav1.7 inactivated state (SIS) automated patch clamp electrophysiology (Patchliner, whole-cell). The class given is cell-based. The note with it: Assay Conc. 10 uM; inactivated state protocol; hNav1.7 stably expressed in human embryonic kidney cells; read-out: hNav1.7 SIS (% inh). The procedure:
hNav1.7, hNav1.2, hNav1.3, hNav1.4, hNav1.5, hNav1.6 were stably expressed in human embryonic kidney cells and kept under constant antibiotic selection. For in vitro assays, cells were maintained in appropriate growth medium at 37° C. and 5% CO2 in a humidified incubator.
Nav1.x expressing cells plated in T-25 flasks for 2-3 days prior to use and grown to 70-85% confluence were briefly trypsinized to obtain a single cell suspension of ˜2-3×10^6 cells/ml. All electrophysiological recordings were performed at ambient temperature (21-23° C.) using automated patch clamp (Patchliner, Nanion Technologies GmbH) in the whole-cell configuration using the following solutions: Internal solution contained (in mM): CsCl (50), NaCl (10), CsF (60), EGTA (20), HEPES (10), pH 7.2 KOH, 285 mOsmol·Kg^−1. External (bath) solution contained (in mM): NaCl (140), KCl (4), MgCl2 (1), CaCl2) (2) D-Glucose monohydrate (5), HEPES (10), pH 7.4 NaOH, 298 mOsmol·kg^−1.
The following voltage protocols were used to assess different Nav1.x channel states:
For each Nav1.x channel, a steady state inactivation curve was obtained in order to calculate the voltage resulting in 50% channel inactivation (V0.5inact). A 2 pulse protocol was then employed in which cells held at a voltage corresponding to 20 mV more negative to V0.5 inact were depolarised to −10 mV for 20 ms before returning to the previous holding voltage. This test pulse constituted P1 and represents 100% available (non-inactivated) Nav1.x channels. The same cell was then depolarised for 8 s to a voltage corresponding to 7 mV more positive than V0.5inact in order to cause channel inactivation. Following a brief (2 ms) hyperpolarising voltage step to −120 mV (to reset the activation gate), cells were again subjected to a depolarising test pulse (P2) to −10 mV for 20 ms before returning to the holding potential. Each sequence was repeated 6× at 30 s intervals. Using this protocol, control P2 current amplitudes (representing the % channels available following 8 s inactivation) was ˜50% of control P1 current amplitude. 6 repetitions of this recording sequence were made in the control bath solution and then again 2 minutes after compound addition and thereafter at increasing compound concentrations. % inhibition was calculated by (1−(P2drug at repetition 6/P2control at repetition 6))*100. Data were either presented as % block by a single concentration of drug or an estimated eIC50 determined from 2-3 drug concentrations which was determined by fitting data with a sigmoidal dose response curve (variable slope) using GraphPad Prism software (Version 6.0).
All compounds were dissolved in DMSO to 20 mM initially. Subsequent dilutions in DMSO were made to achieve 200× final bath concentrations. DMSO compound stocks were finally diluted 1/200 in bath solution just prior to assay resulting in a final DMSO concentration of 0.5% which was not found to affect control current amplitude.
For orientation: The patch-clamp technique gives a direct electrical read-out from membranes.
With `O=C(NCc1cccc(OCc2ccccc2F)c1)c1cn2ccncc2n1` [Number 67], the inhibition at 10 µM amounted to 34%. The same measure, in the same setting: under `O=C(NCc1cccc(OCc2ccccc2F)c1)c1cccc2cncn12` [Number 60] stands 49%; under `O=C(NCc1cccc(OCc2ccccc2F)c1)c1cnc2ccccn12` [Number 73], 47%; under `Cc1cn2ccc(C(=O)NCc3cccc(OCc4ccccc4F)c3)cc2n1` [Number 71], 66%. As for `Cn1cc(CC(=O)NCc2cccc(OCc3ccccc3F)c2)c2ccccc21` [Number 75], the inhibition at 10 µM is 74%. Still for that read-out and setting: under `Cc1cnc2cc(C(=O)NCc3cccc(OCc4ccccc4F)c3)ccn12` [Number 83] stands 59%; under `O=C(NCc1cc(OCc2ccccc2F)ccc1F)c1ccn2cnnc2c1` [Number 74], 58%. Same read-out and setting: under `Cn1ccc(C(=O)NCc2cc(OCc3ccccc3F)ccc2F)cc1=O` [Number 55] stands 49%. For the compound `O=C(NCc1cccc(OCc2ccccc2F)c1)c1cccc2ccnn12` [Number 50], the inhibition at 10 µM was 80%. Same read-out and setting: under `O=C(NCc1cccc(OCc2ccccc2F)c1)c1ccn2ncnc2c1` [Number 80] stands 30%; under `O=C(NCc1cc(OCc2ccccc2F)ccc1F)c1cccn2cncc12` [Number 87], 66%; under `O=C(NCc1cc(OCc2ccccc2F)ccc1F)c1cn2ncccc2n1` [Number 68], 53%. For the compound `CC(C)(NC(=O)c1ccn2ccnc2c1)c1cccc(OCc2ccccc2F)c1` [Number 11], the inhibition at 10 µM came to 45%. On the same count and under the same terms, under `COC[C@@H](C)N(Cc1cccc(OCc2ccccc2F)c1)C(=O)c1cn2ccccc2n1` [Number 53] stands 74%; under `COC[C@H](C)N(Cc1cccc(OCc2ccccc2F)c1)C(=O)c1cn2ccccc2n1` [Number 54], 55%; under `Cn1ccc(C(=O)NCc2cccc(OCc3ccccc3F)c2)cc1=O` [Number 66], 30%.

For `O=C(NCc1cccc(OCc2ccccc2F)c1)c1cccn2nnnc12` [Number 79], the inhibition at 10 µM stood at 42%. On the same count and under the same terms, under `O=C(NCc1cc(OCc2ccccc2F)ccc1F)c1cn2cccnc2n1` [Number 59] stands 42%; under `O=C(NCc1cccc(OCc2ccccc2F)c1)c1cc2cccn2cn1` [Number 69], 92%; under `Cn1cccc(C(=O)NCc2cc(OCc3ccccc3F)ccc2F)c1=O` [Number 58], 52%. Still for that read-out and setting: the result for `O=C(NCc1cccc(OCc2ccccc2F)c1)c1cn2ncccc2n1` [Number 62] reads 50%; that for `CC(C)(Oc1cccc(CNC(=O)c2cccn3cnnc23)c1)c1ccccc1F` [Number 51], 36%; that for `O=C(NCc1cc(OCc2ccccc2F)ccc1F)c1cccn2ncnc12` [Number 78], 83%. Still for that read-out and setting: under `O=C(NCc1cccc(OCc2ccccc2F)c1)c1ccn2cnnc2c1` [Number 70] stands 66%; under `Cc1cn2ccc(C(=O)NCc3cc(OCc4ccccc4F)ccc3F)cc2n1` [Number 72], 100%. In the case of `O=C(NCc1cc(OCc2ccccc2F)ccc1F)c1ccc2cncn2c1` [Number 85], the inhibition at 10 µM is 55%. Same read-out and setting: the result for `O=C(Cc1cn2ccccc2n1)NCc1cccc(OCc2ccccc2F)c1` [Number 76] reads 44%. The same measure, in the same setting: the result for `O=C(NCc1cc(OCc2ccccc2F)ccc1F)c1ccn2ncnc2c1` [Number 82] reads 42%; that for `O=C(NCc1cccc(OCc2ccccc2F)c1)c1ccc2cncn2c1` [Number 84], 45%.

Regarding `O=C(NCc1cccc(OCc2ccccc2F)c1)c1cccn2cncc12` [Number 86], the inhibition at 10 µM was 92%.

`O=C(NCc1cc(OCc2ccccc2F)ccc1F)c1nccn2ccnc12` [Number 48]: the inhibition at 10 µM was determined as 100%.

Consider `Cn1cccc(C(=O)NCc2cccc(OCc3ccccc3F)c2)c1=O` [Number 57], for which the inhibition at 10 µM came out at 53%.

For `O=C(NCc1cc(OCc2ccccc2F)ccc1F)c1cccn2nnnc12` [Number 81], the inhibition at 10 µM came to 88%. Same read-out and setting: under `O=C(NCc1cc(OCc2ccccc2F)ccc1F)c1cccc2nncn12` [Number 49] stands 38%. The same measure, in the same setting: the result for `O=C(NCc1cccc(OCc2ccccc2F)c1)c1cn2cccnc2n1` [Number 63] reads 42%. Still for that read-out and setting: the result for `O=C(NCc1cccc(OCc2ccccc2F)c1)c1cccn2ncnc12` [Number 77] reads 70%.

As to `O=C(NCc1cc(OCc2ccccc2F)ccc1F)c1cccn2ccnc12` [Number 89], the inhibition at 10 µM was 99%.

On to `CC(C)(Oc1cccc(CNC(=O)c2cccn3ccnc23)c1)c1ccccc1F` [Number 52], for which the inhibition at 10 µM is 83%. The same measure, in the same setting: under `O=C(NCc1cccc(OCc2ccccc2F)c1)c1cccc2ncnn12` [Number 64] stands 48%. The same measure, in the same setting: the result for `O=C(NCc1cccc(OCc2ccccc2F)c1)c1ccc2nncn2c1` [Number 88] reads 49%.

The assay is the same for the next values; noted with them: estimated eIC50 from 2-3 drug concentrations; inactivated state protocol; hNav1.7 stably expressed in human embryonic kidney cells.
As to `O=C(NCc1cccc(OCc2ccccc2F)c1)c1cccn2ccnc12` [Number 3], the IC50 (usually the point on the concentration scale where inhibition reaches its midpoint) was 2.7 µM. Same read-out and setting: under `O=C(NCc1cccc(OCc2ccccc2F)c1)c1ccn2ccnc2c1` [Number 9] stands 8.9 µM. Same read-out and setting: under `CN(Cc1cccc(OCc2ccccc2F)c1)C(=O)c1cn2ccccc2n1` [Number 61] stands 1.6 µM; under `O=C(NCc1cccc(OCc2ccccc2F)c1)c1cccn2cnnc12` [Number 10], 3.3 µM. Same read-out and setting: the result for `O=C(NCc1cccc(OCc2ccccc2F)c1)c1nccn2ccnc12` [Number 2] reads 1.3 µM; that for `O=C(NCc1cc(OCC2CCCCC2)ccc1F)c1cccn2cnnc12` [Number 6], 0.13 µM; that for `O=C(NCc1cc(OCc2ccccc2F)ccc1F)c1cccc2ncnn12` [Number 65], 10 µM. As to `O=C(NCc1cc(OCc2ccccc2F)ccc1F)c1ccn2ccnc2c1` [Number 5], the IC50 was 1.3 µM.

For `O=C(NCc1cc(OCC2CCCCC2)ccc1F)c1ccn2ccnc2c1` [Number 1], the 50% inhibitory concentration (IC50) is 0.41 µM.

As to `O=C(NCc1cccc(OCC2CCCCC2)c1)c1cccn2cnnc12` [Number 8], the concentration for half-maximal inhibition (IC50) was 0.91 µM. On the same count and under the same terms, the result for `CC(C)(NC(=O)c1ccn2ccnc2c1)c1cccc(OCC2CCCCC2)c1` [Number 12] reads 0.51 µM; that for `CC(C)(NC(=O)c1cccn2cnnc12)c1cccc(OCC2CCCCC2)c1` [Number 7], 4.8 µM; that for `O=C(NCc1cc(OCc2ccccc2F)ccc1F)c1cccn2cnnc12` [Number 4], 1.1 µM. Still for that read-out and setting: the result for `O=C(NCc1cc(OCc2ccccc2F)ccc1F)c1cn2ccccc2n1` [Number 56] reads 2.2 µM.
